Earlier results as cited in US9913840B2, “Formulations for aripiprazole delivery transdermally” (Corium International, Inc., priority 2015, dated 2018).

Settings: at room temperature

O=C1CCc2ccc(OCCCCN3CCN(c4cccc(Cl)c4Cl)CC3)cc2N1 [Aripiprazole]
aqueous solubility: less than 1 μg/mL
